# From patent US10570149B2, “Tricyclic heterocylic derivatives” (MERCK PATENT GMBH, priority 2016, dated 2020)
# Target: T1, ATR/ATRIP (Homo sapiens, UniProt Q13535)
# T1 construct: human ATR, full length, GenBank ID: NM_001184.3; p53: Sf21 insect cells
# Assay: ATR/ATRIP kinase assay (TR-FRET, p53 phosphorylation)
# Type: biochemical
# Details: Table 1, class symbols; read-out: ATR-ATRIP IC50
# Description: ATR/ATRIP Kinase Assay—Measurement of ATR/ATRIP Inhibition
# The IC50 value was determined by an ATR/ATRIP enzymatic assay. The assay comprises two steps: the enzymatic reaction and the detection step. First, a mixture of ATR/ATRIP protein (Ataxia Telangiectasia and Rad3-related protein/ATR interacting protein), the compound in question at different concentrations, p53 as substrate protein and adenosine triphosphate (ATP) are incubated in assay buffer. ATR phosphorylates p53 at Ser15 and other residues. The amount of phosphorylated p53 is then detected using specific antibodies and the TR-FRET assay technology.
# In detail: The ATR/ATRIP enzymatic assay is performed as a TR-FRET-(HTRF™, Cisbio Bioassays) based 384-well assay. In a first step, purified human recombinant ATR/ATRIP (human ATR, full length, GenBank ID: NM_001184.3, and human ATRIP, full length, GenBank ID AF451323.1, co-expressed in a mammalian cell line) is incubated in assay buffer for 15 minutes at 22° C. with test compound at different concentrations or without test compound (as a negative control). The assay buffer contains 25 mM HEPES pH 8.0, 10 mM Mg(CH3COO)2, 1 mM MnCl2, 0.1% BSA, 0.01% Brij® 35, and 5 mM dithiothreitol (DTT). […] Then, in a second step, purified human recombinant cmyc-tagged p53 (human p53, full length, GenBank ID: BC003596, expressed in Sf21 insect cells) and ATP are added and the reaction mixture is incubated for 25-35 minutes, typically 25 minutes, at 22° C. The pharmacologically relevant assay volume is 5 μl. The final concentrations in the assay during incubation of the reaction mixture are 0.3-0.5 nM, typically 0.3 nM, ATR/ATRIP, 50 nM p53, and 0.5 μM ATP. The enzymatic reaction is stopped by the addition of EDTA. […] Following signal development for 2 h the plates are analyzed in an EnVision (PerkinElmer) microplate reader using the TRF mode with laser excitation. […] Data are processed employing the Genedata Screener software. In particular, IC50 values are determined in the usual manner by fitting a dose-response curve to the data points using nonlinear regression analysis.
# T1 sequence (Q13535 whole entry): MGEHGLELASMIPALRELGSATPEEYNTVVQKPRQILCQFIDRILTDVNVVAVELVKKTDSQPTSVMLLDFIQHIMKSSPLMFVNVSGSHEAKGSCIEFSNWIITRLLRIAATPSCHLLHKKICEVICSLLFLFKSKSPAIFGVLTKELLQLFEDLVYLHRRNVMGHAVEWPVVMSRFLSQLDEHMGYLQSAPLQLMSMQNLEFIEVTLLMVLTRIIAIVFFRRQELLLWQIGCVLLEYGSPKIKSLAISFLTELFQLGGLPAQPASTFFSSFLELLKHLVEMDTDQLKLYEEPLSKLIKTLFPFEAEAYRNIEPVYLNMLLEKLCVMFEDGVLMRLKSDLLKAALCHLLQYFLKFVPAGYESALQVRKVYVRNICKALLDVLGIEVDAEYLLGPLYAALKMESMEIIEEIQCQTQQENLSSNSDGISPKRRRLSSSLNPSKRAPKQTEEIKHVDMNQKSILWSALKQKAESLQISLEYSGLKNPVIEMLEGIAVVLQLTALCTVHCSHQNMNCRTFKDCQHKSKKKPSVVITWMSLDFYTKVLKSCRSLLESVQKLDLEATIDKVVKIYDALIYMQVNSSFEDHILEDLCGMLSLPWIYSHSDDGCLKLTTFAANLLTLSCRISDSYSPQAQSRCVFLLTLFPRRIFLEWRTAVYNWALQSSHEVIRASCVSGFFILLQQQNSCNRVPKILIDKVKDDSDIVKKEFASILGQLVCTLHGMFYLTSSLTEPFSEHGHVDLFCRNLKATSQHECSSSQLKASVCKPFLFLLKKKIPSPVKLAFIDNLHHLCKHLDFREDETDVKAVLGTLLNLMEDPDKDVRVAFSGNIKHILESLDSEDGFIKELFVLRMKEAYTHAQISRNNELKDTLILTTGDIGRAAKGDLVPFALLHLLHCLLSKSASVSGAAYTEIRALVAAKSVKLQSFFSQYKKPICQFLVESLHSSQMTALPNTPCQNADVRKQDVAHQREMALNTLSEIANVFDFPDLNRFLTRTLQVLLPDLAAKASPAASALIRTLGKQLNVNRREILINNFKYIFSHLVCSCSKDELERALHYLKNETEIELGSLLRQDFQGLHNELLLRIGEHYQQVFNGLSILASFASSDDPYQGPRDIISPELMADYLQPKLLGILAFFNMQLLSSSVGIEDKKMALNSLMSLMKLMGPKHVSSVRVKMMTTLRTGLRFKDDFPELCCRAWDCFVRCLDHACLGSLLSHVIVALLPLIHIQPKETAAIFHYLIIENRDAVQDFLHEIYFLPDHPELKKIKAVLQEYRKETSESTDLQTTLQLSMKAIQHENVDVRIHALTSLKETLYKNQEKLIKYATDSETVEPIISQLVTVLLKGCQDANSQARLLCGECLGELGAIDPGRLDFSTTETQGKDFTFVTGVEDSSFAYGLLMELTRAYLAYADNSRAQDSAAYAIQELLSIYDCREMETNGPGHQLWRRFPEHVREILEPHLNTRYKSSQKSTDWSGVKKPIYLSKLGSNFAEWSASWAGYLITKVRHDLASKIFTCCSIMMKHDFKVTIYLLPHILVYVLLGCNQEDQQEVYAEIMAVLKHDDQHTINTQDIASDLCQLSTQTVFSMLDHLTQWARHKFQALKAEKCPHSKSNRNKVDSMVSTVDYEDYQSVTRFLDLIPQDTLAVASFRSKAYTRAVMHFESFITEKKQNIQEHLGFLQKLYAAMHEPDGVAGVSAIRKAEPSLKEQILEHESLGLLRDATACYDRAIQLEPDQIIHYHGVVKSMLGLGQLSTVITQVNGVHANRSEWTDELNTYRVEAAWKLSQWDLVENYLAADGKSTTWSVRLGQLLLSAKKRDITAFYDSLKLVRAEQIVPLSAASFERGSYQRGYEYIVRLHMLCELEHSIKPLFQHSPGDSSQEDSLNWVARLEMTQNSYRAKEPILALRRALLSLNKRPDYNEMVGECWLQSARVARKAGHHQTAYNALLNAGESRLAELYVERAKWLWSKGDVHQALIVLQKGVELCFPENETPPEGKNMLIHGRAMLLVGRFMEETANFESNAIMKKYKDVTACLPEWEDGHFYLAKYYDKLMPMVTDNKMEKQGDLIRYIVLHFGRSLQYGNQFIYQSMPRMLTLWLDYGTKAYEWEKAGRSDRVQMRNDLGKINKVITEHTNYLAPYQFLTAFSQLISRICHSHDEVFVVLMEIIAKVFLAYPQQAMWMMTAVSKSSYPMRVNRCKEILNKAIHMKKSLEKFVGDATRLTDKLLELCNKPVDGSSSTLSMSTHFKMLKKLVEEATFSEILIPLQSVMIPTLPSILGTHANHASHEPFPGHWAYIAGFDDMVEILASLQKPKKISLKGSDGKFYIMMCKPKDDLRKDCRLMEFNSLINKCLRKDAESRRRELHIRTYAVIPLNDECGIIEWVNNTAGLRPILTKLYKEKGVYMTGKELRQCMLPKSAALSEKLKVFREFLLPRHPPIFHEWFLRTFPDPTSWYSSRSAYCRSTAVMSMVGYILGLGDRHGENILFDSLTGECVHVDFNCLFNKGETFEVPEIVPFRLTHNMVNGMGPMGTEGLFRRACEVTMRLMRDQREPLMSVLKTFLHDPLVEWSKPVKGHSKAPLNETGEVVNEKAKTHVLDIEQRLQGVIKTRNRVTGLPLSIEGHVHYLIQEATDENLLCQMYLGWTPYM
# T1 sequence (Q8WXE1 whole entry partner): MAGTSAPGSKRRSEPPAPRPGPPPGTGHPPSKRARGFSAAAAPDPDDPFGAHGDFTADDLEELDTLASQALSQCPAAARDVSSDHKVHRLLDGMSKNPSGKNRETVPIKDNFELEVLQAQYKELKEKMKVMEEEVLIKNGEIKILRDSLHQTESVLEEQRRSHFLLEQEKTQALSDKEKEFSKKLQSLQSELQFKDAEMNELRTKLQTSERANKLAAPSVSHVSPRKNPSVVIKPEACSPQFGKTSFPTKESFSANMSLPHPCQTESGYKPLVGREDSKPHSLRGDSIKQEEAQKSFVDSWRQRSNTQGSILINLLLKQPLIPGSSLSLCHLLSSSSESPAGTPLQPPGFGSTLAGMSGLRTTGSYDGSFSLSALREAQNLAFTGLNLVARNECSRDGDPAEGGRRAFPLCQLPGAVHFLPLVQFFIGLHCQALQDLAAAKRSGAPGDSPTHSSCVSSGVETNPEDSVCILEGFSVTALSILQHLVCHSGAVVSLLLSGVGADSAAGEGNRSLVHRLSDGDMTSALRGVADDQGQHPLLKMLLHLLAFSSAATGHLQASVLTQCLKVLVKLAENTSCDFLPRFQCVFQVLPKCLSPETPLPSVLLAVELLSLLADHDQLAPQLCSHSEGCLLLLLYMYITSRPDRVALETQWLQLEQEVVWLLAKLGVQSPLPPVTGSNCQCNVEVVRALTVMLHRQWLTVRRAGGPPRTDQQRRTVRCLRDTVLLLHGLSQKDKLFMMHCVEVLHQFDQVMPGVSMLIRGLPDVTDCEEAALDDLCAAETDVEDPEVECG
row,IC50 [nM],SMILES
1,10 to 100,"C[C@@H]1COC[C@H]2COc3c(nc(-c4ccc(CCN)cc4)nc3C(C)(C)S(C)(=O)=O)N21 [A45, 2-{4-[(4bS,6R)-1-(1-methanesulfonyl-1-methyl-ethyl)-5-methyl-5,6,8a,9-tetrahydro-8H-7,10-dioxa-2,4,4b-triaza-phenanthren-3-yl]-phenyl}-ethylamine]"
2,500 to 30000,"C[C@@H]1COC[C@H]2COc3c(nc(C(=O)Nc4ccn[nH]4)nc3C(C)(C)S(C)(=O)=O)N21 [A47, (4bS,6R)-1-(1-methanesulfonyl-1-methyl-ethyl)-5-methyl-5,6,8a,9-tetrahydro-8H-7,10-dioxa-2,4,4b-triaza-phenanthrene-3-carboxylic Acid (2H-pyrazol-3-yl)-amide]"
3,500 to 30000,"C[C@@H]1COC[C@H]2COc3c(nc(C(=O)N4CC[C@H](O)C4)nc3C(C)(C)S(C)(=O)=O)N21 [A48, ((S)-3-hydroxy-pyrrolidin-1-yl)-[(4bS,6R)-1-(1-methanesulfonyl-1-methyl-ethyl)-5-methyl-5,6,8a,9-tetrahydro-8H-7,10-dioxa-2,4,4b-triaza-phenanthren-3-yl]-methanone]"
4,500 to 30000,"C[C@@H]1COC[C@H]2COc3c(nc(C(=O)N4CC[C@@H](O)C4)nc3C(C)(C)S(C)(=O)=O)N21 [A49, ((R)-3-hydroxy-pyrrolidin-1-yl)-[(4bS,6R)-1-(1-methanesulfonyl-1-methyl-ethyl)-5-methyl-5,6,8a,9-tetrahydro-8H-7,10-dioxa-2,4,4b-triaza-phenanthren-3-yl]-methanone]"
5,500 to 30000,"C[C@@H]1COC[C@H]2COc3c(nc(C(=O)N4CC[C@@H](N)C4)nc3C(C)(C)S(C)(=O)=O)N21 [A51, ((R)-3-amino-pyrrolidin-1-yl)-[(4bS,6R)-1-(1-methanesulfonyl-1-methyl-ethyl)-5-methyl-5,6,8a,9-tetrahydro-8H-7,10-dioxa-2,4,4b-triaza-phenanthren-3-yl]-methanone]"
6,500 to 30000,"C[C@@H]1COC[C@H]2COc3c(nc(C(=O)NC[C@@H](C)O)nc3C(C)(C)S(C)(=O)=O)N21 [A53, (4bS,6R)-1-(1-methanesulfonyl-1-methyl-ethyl)-5-methyl-5,6,8a,9-tetrahydro-8H-7,10-dioxa-2,4,4b-triaza-phenanthrene-3-carboxylic Acid ((R)-2-hydroxy-propyl)-amide]"
7,500 to 30000,"C[C@H](O)CNC(=O)c1nc2c(c(C(C)(C)S(C)(=O)=O)n1)OC[C@@H]1COC[C@@H](C)N21 [A54, (4bS,6R)-1-(1-methanesulfonyl-1-methyl-ethyl)-5-methyl-5,6,8a,9-tetrahydro-8H-7,10-dioxa-2,4,4b-triaza-phenanthrene-3-carboxylic Acid ((S)-2-hydroxy-propyl)-amide]"
8,10 to 100,"C[C@@H]1COC[C@H]2COc3c(nc(C(=O)Nc4nnc[nH]4)nc3C(C)(C)S(C)(=O)=O)N21 [A55, (4bS,6R)-1-(1-methanesulfonyl-1-methyl-ethyl)-5-methyl-5,6,8a,9-tetrahydro-8H-7,10-dioxa-2,4,4b-triaza-phenanthrene-3-carboxylic Acid (4H-[1,2,4]triazol-3-yl)-amide]"

# The remaining lines, values behind:
row,SMILES,IC50 [nM]
1,"C[C@@H]1COC[C@H]2COc3c(Cn4nncc4C(=O)O)nc(-c4ccnc5[nH]ccc45)nc3N21 [A2, 3-[(5R,8aS)-5-Methyl-3-(1H-pyrrolo[2,3-b]pyridin-4-yl)-5,6,8a,9-tetrahydro-8H-7,10-dioxa-2,4,4b-triaza-phenanthren-1-ylmethyl]-3H[1,2,3]triazole-4-carboxylic Acid]",10 to 100
2,"CNc1nc2ccccc2n1-c1nc(Cn2nncc2C(=O)O)c2c(n1)N1[C@@H](COC[C@H]1C)CO2 [A3, 3-[(5R,8aS)-5-Methyl-3-(2-methylamino-benzoimidazol-1-yl)-5,6,8a,9-tetrahydro-8H-7,10-dioxa-2,4,4b-triaza-phenanthren-1-ylmethyl]-3H[1,2,3]triazole-4-carboxylic Acid]",100 to 500
3,"C[C@@H]1COC[C@H]2COc3c(Cn4cc(C(=O)O)nn4)nc(-c4ccnc5[nH]ccc45)nc3N21 [A4, 1-[(5R,8aS)-5-Methyl-3-(1H-pyrrolo[2,3-b]pyridin-4-yl)-5,6,8a,9-tetrahydro-8H-7,10-dioxa-2,4,4b-triaza-phenanthren-1-ylmethyl]-1H-[1,2,3]triazole-4-carboxylic Acid]",1 to 10
4,"CNCc1c[nH]c2ncc(F)c(-c3nc4c(c(C(C)(C)O)n3)OC[C@@H]3COC[C@@H](C)N43)c12 [A5, 2-[(5R,8aS)-3-(5-Fluoro-3-methylaminomethyl-1H-pyrrolo[2,3-b]pyridin-4-yl)-5-methyl-5,6,8a,9-tetrahydro-8H-7,10-dioxa-2,4,4b-triaza-phenanthren-1-yl]-propan-2-ol]",10 to 100
5,"C[C@@H]1COC[C@H]2COc3c(nc(N(C)c4nc5ccccc5[nH]4)nc3C(C)(C)O)N21 [A12, 2-{(5R,8aS)-3-[(1H-Benzimidazol-2-yl)-methyl-amino]-5-methyl-5,6,8a,9-tetrahydro-8H-7,10-dioxa-2,4,4b-triaza-phenanthren-1-yl}-propan-2-ol]",10 to 100
6,"CNc1nc2ccccc2n1-c1nc2c(c(C(C)(C)S(C)(=O)=O)n1)OC[C@H]1COC[C@H](C)N21 [A14, {1-[(5S,8aR)-1-(1-Methanesulfonyl-1-methyl-ethyl)-5-methyl-5,6,8a,9-tetrahydro-8H-7,10-dioxa-2,4,4b-triaza-phenanthren-3-yl]-1H-benzimidazol-2-yl}-methyl-amine]",10 to 100
7,"C[C@@H]1COC[C@H]2COc3c(nc(N(C)c4nc5ccccc5[nH]4)nc3C(C)(C)S(C)(=O)=O)N21 [A16, (1H-Benzimidazol-2-yl)-[(5R,8aS)-1-(1-methanesulfonyl-1-methyl-ethyl)-5-methyl-5,6,8a,9-tetrahydro-8H-7,10-dioxa-2,4,4b-triaza-phenanthren-3-yl]-methyl-amine]",10 to 100
8,"CNc1nc2ccccc2n1-c1nc(Cn2cc(C(=O)O)nn2)c2c(n1)N1[C@@H](COC[C@H]1C)CO2 [A17, 1-[(5R,8aS)-5-Methyl-3-(2-methylamino-benzimidazol-1-yl)-5,6,8a,9-tetrahydro-8H-7,10-dioxa-2,4,4b-triaza-phenanthren-1-ylmethyl]-1H[1,2,3]triazole-4-carboxylic Acid]",100 to 500
9,"COC(=O)c1cn(Cc2nc(-c3ccnc4[nH]ccc34)nc3c2OC[C@@H]2COC[C@@H](C)N32)nn1 [A18, 1-[(5R,8aS)-5-Methyl-3-(1H-pyrrolo[2,3-b]pyridin-4-yl)-5,6,8a,9-tetrahydro-8H-7,10-dioxa-2,4,4b-triaza-phenanthren-1-ylmethyl]-1H-[1,2,3]triazole-4-carboxylic Acid Methyl Ester]",1 to 10
10,"COC(=O)c1cn(Cc2nc(-c3ccnc4c3ccn4C)nc3c2OC[C@@H]2COC[C@@H](C)N32)nn1 [A19, 1-[(5R,8aS)-5-Methyl-3-(1-methyl-1H-pyrrolo[2,3-b]pyridin-4-yl)-5,6,8a,9-tetrahydro-8H-7,10-dioxa-2,4,4b-triaza-phenanthren-1-ylmethyl]-1H[1,2,3]triazole-4-carboxylic Acid Methyl Ester]",100 to 500
11,"CNc1nc2ccccc2n1-c1nc(Cn2cc(C(=O)OC)nn2)c2c(n1)N1[C@@H](COC[C@H]1C)CO2 [A22, 1-[(5R,8aS)-5-Methyl-3-(2-methylamino-benzoimidazol-1-yl)-5,6,8a,9-tetrahydro-8H-7,10-dioxa-2,4,4b-triaza-phenanthren-1-ylmethyl]-1H[1,2,3]triazole-4-carboxylic Acid Methyl Ester]",10 to 100
12,"C[C@@H]1COC[C@H]2COc3c(nc(-c4c(F)ncc5c4ccn5C)nc3C(C)(C)S(C)(=O)=O)N21 [A38, (5R,8aS)-3-(5-fluoro-1-methyl-1H-pyrrolo[2,3-c]pyridin-4-yl)-1-(1-methanesulfonyl-1-methyl-ethyl)-5-methyl-5,6,8a,9-tetrahydro-8H-7,10-dioxa-2,4,4b-triaza-phenanthrene]",500 to 30000
13,"C[C@@H]1COC[C@H]2COc3c(nc(-c4cncc(CO)c4)nc3C(C)(C)S(C)(=O)=O)N21 [A40, {5-[(5R,8aS)-1-(1-methanesulfonyl-1-methyl-ethyl)-5-methyl-5,6,8a,9-tetrahydro-8H-7,10-dioxa-2,4,4b-triaza-phenanthren-3-yl]-pyridin-3-yl}-methanol]",1 to 10
14,"C[C@@H]1COC[C@H]2COc3c(nc(-c4cccc(CO)c4)nc3C(C)(C)S(C)(=O)=O)N21 [A41, {3-[(5R,8aS)-1-(1-methanesulfonyl-1-methyl-ethyl)-5-methyl-5,6,8a,9-tetrahydro-8H-7,10-dioxa-2,4,4b-triaza-phenanthren-3-yl]-phenyl}-methanol]",< 1
15,CNc1ncn(-c2nc3c(c(C(C)(C)S(C)(=O)=O)n2)OC[C@@H]2COC[C@@H](C)N32)n1 [A43],100 to 500
